Where a name gives a salt, the structure may show the parent alone.

The test system of the first experiment is bacterial strains that express KPC β-lactamases. Kind of experiment: Synergy MIC / standard BLI potentiation MIC assay, strains expressing KPC β-lactamases. Format: cell-based. The settings on record: at least one KPC strain and/or better spectrum; in the presence of a β-lactam. The method, then: (§1) The experimental protocol was performed according to Clinical and Laboratory Standards Institute (CLSI) guidelines with modifications as described below (CLSI guidelines can be derived from the CLSI document M07-A9 published in January 2012: “Methods for Dilution Antimicrobial Susceptibility Tests for Bacteria That Grow Aerobically; Approved Standard-Ninth Edition”).
(§2) To prepare for MIC testing, frozen glycerol stocks of clinical isolates (Klebsiella pneumoniae, Eschericia coli, Enterobacter spp, Citrobacter spp, or Pseudomonas aeruginosa) were used to streak for isolated colonies on rich, non-selective, tryptic soy agar containing 5% sheep's blood (TSAB). Frozen glycerol stocks of laboratory engineered, isogenic E. coli strains, which contain cloned β-lactamase expressing plasmids were used to streak for isolated colonies on rich, selective LB agar supplemented with 25 μg/mL tetracycline to maintain the plasmid. All strains were incubated at 37° C. for 18-24 hrs.
(§3) On the day of testing, primary cultures were started by scraping off 5-10 colonies from the TSAB plates containing clinical strains or the tetracycline supplemented LB plates containing engineered strains. The clinical strain material was suspended in ˜5 mL of cation adjusted Mueller Hinton Broth (CAMHB) in 14 mL culture tubes. The engineered strain material was suspended in CAMHB (supplemented with 25 μg/mL tetracycline) in 14 mL culture tubes. All strains were incubated at 37° C. with aeration (200 rpm) for ˜2 hrs until the optical density at 600 nm (OD600) was >0.1.
(§4) The two compound components of the assay were each diluted in CAMHB and added to the 96-well broth microdilution assay plates. 50 μL of the β-lactam was added to each well of the assay plate in 2-fold dilutions with final concentrations ranging from 128 to 0.13 μg/mL. 25 μL of the BLI compound was added to all wells in the broth microdilution plates at a final concentration of 4 μg/mL. Inoculum cultures were prepared by standardizing the primary cultures to OD600=0.1 and then adding 20 μL of the adjusted primary culture per 1 mL CAMHB for clinical strains or CAMHB (supplemented with tetracycline at 100 μg/mL) for engineered strains, so that the final inoculum density was ˜10^5 colony forming units per milliliter. Diluted inoculum cultures were used to inoculate 25 μl, per well in 96-well broth microdilution assay plates. The final volume of each well was 100 μL and contained a β-lactam at different concentrations, a BLI compound at 4 μg/mL concentration, the bacterial culture at an OD600 of approximately 0.001 and when necessary tetracycline at 25 μg/mL.
(§5) Plates were incubated for 18-20 hours at 37° C. with aeration (200 rpm). Following incubation, growth was confirmed visually placing plates over a viewing apparatus (stand with a mirror underneath) and then OD600 was measured using a SpectraMax 340PC384 plate reader (Molecular Devices, Sunnyvale, Calif.). Growth was defined as turbidity that could be detected with the naked eye or achieving minimum OD600 of 0.1. MIC values were defined as the lowest concentration producing no visible turbidity.
The synergy MIC (sMIC) assay determines the concentration of the BLI required to potentiate the activity of a fixed concentration of a β-lactam antibiotic against β-lactamase producing bacterial strains. The experimental protocol was performed according to Clinical and Laboratory Standards Institute (CLSI) guidelines with modifications as described below (CLSI guidelines can be derived from the CLSI document M07-A9 published in January 2012: “Methods for Dilution Antimicrobial Susceptibility Tests for Bacteria That Grow Aerobically; Approved Standard-Ninth Edition”). […]
As to `O=C1N2C[C@@H](CC[C@H]2c2cc(CC3CCNCC3)on2)N1OS(=O)(=O)O` [Compound 627, (2S,5R)-7-oxo-2-(5-(piperidin-4-ylmethyl)isoxazol-3-yl)-1,6-diazabicyclo[3.2.1]octan-6-yl hydrogen sulfate], the “activity and/or spectrum of activity against bacterial strains that express KPC β-lactamases, compared with Avibactam” value is recorded as “more active than Avibactam”.
`N[C@H]1C[C@@H](c2cc([C@@H]3CC[C@@H]4CN3C(=O)N4OS(=O)(=O)O)no2)C1` [Compound 616, (2S,5R)-2-(5-((1s,3R)-3-aminocyclobutyl)isoxazol-3-yl)-7-oxo-1,6-diazabicyclo[3.2.1]octan-6-yl hydrogen sulfate]: the “activity and/or spectrum of activity against bacterial strains that express KPC β-lactamases, compared with Avibactam” value is on record as “more active than Avibactam”.
Still for that read-out and setting: the value for `N=C(N)NCCNC(=O)c1cc([C@@H]2CC[C@@H]3CN2C(=O)N3OS(=O)(=O)O)no1` [Compound 608, (2S,5R)-2-(5-((2-guanidinoethyl)carbamoyl)isoxazol-3-yl)-7-oxo-1,6-diazabicyclo[3.2.1]octan-6-yl hydrogen sulfate] was “more active than Avibactam”; that for `O=C1N2C[C@@H](CC[C@H]2c2cc(CCNC3CNC3)on2)N1OS(=O)(=O)O` [Compound 623, (2S,5R)-2-(5-(2-(azetidin-3-ylamino)ethyl)isoxazol-3-yl)-7-oxo-1,6-diazabicyclo[3.2.1]octan-6-yl hydrogen sulfate] was “more active than Avibactam”.
As for `NCCNC(=O)c1cc([C@@H]2CC[C@@H]3CN2C(=O)N3OS(=O)(=O)O)no1` [Compound 605, (2S,5R)-2-(5-((2-aminoethyl)carbamoyl)isoxazol-3-yl)-7-oxo-1,6-diazabicyclo[3.2.1]octan-6-yl hydrogen sulfate], the “activity and/or spectrum of activity against bacterial strains that express KPC β-lactamases, compared with Avibactam” value is on record as “more active than Avibactam”.
For the compound `N=C(N)NCc1cc([C@@H]2CC[C@@H]3CN2C(=O)N3OS(=O)(=O)O)no1` [Compound 603, (2S,5R)-2-(5-(guanidinomethyl)isoxazol-3-yl)-7-oxo-1,6-diazabicyclo[3.2.1]octan-6-yl hydrogen sulfate], the “activity and/or spectrum of activity against bacterial strains that express KPC β-lactamases, compared with Avibactam” value is given as “more active than Avibactam”.
Take `N=C(N)NCC(O)c1cc([C@@H]2CC[C@@H]3CN2C(=O)N3OS(=O)(=O)O)no1` (single isomer, unassigned) [Compound 611, (2S,5R)-2-(5-((R*)-2-guanidino-1-hydroxyethyl)isoxazol-3-yl)-7-oxo-1,6-diazabicyclo[3.2.1]octan-6-yl hydrogen sulfate]: the “activity and/or spectrum of activity against bacterial strains that express KPC β-lactamases, compared with Avibactam” value is on record as “more active than Avibactam”.
Same read-out and setting: with `N=C(N)N1CCC(c2cc([C@@H]3CC[C@@H]4CN3C(=O)N4OS(=O)(=O)O)no2)CC1` [Compound 607, (2S,5R)-2-(5-(1-carbamimidoylpiperidin-4-yl)isoxazol-3-yl)-7-oxo-1,6-diazabicyclo[3.2.1]octan-6-yl hydrogen sulfate] the entry was “more active than Avibactam”.
On to `N=C(N)NCCCc1cc([C@@H]2CC[C@@H]3CN2C(=O)N3OS(=O)(=O)O)no1` [Compound 615, (2S,5R)-2-(5-(3-guanidinopropyl)isoxazol-3-yl)-7-oxo-1,6-diazabicyclo[3.2.1]octan-6-yl hydrogen sulfate], for which the “activity and/or spectrum of activity against bacterial strains that express KPC β-lactamases, compared with Avibactam” value is listed as “more active than Avibactam”.
`O=C1N2C[C@@H](CC[C@H]2c2cc(CCNC3CCNCC3)on2)N1OS(=O)(=O)O` [Compound 609, (2S,5R)-7-oxo-2-(5-(2-(piperidin-4-ylamino)ethyl)isoxazol-3-yl)-1,6-diazabicyclo[3.2.1]octan-6-yl hydrogen sulfate]: the “activity and/or spectrum of activity against bacterial strains that express KPC β-lactamases, compared with Avibactam” value is “more active than Avibactam”.
As for `N=C(N)NCC(O)c1cc([C@@H]2CC[C@@H]3CN2C(=O)N3OS(=O)(=O)O)no1` (single isomer, unassigned) [Compound 612, (2S,5R)-2-(5-((S*)-2-guanidino-1-hydroxyethyl)isoxazol-3-yl)-7-oxo-1,6-diazabicyclo[3.2.1]octan-6-yl hydrogen sulfate], the “activity and/or spectrum of activity against bacterial strains that express KPC β-lactamases, compared with Avibactam” value was “more active than Avibactam”.
Turning to `N=C(N)N[C@H]1C[C@@H](c2cc([C@@H]3CC[C@@H]4CN3C(=O)N4OS(=O)(=O)O)no2)C1` [Compound 617, (2S,5R)-2-(5-((1s,3R)-3-guanidinocyclobutyl)isoxazol-3-yl)-7-oxo-1,6-diazabicyclo[3.2.1]octan-6-yl hydrogen sulfate], the “activity and/or spectrum of activity against bacterial strains that express KPC β-lactamases, compared with Avibactam” value is on record as “more active than Avibactam”.
Take `N=C(N)NC1(Cc2cc([C@@H]3CC[C@@H]4CN3C(=O)N4OS(=O)(=O)O)no2)CC1` [Compound 613, (2S,5R)-2-(5-((1-guanidinocyclopropyl)methyl)isoxazol-3-yl)-7-oxo-1,6-diazabicyclo[3.2.1]octan-6-yl hydrogen sulfate]: the “activity and/or spectrum of activity against bacterial strains that express KPC β-lactamases, compared with Avibactam” value was “more active than Avibactam”.
In the case of `N=C(N)N1CCC(NCCc2cc([C@@H]3CC[C@@H]4CN3C(=O)N4OS(=O)(=O)O)no2)CC1` [Compound 610, (2S,5R)-2-(5-(2-((1-carbamimidoylpiperidin-4-yl)amino)ethyl)isoxazol-3-yl)-7-oxo-1,6-diazabicyclo[3.2.1]octan-6-yl hydrogen sulfate], the “activity and/or spectrum of activity against bacterial strains that express KPC β-lactamases, compared with Avibactam” value was “more active than Avibactam”.
Take `NCCNCCc1cc([C@@H]2CC[C@@H]3CN2C(=O)N3OS(=O)(=O)O)no1` [Compound 620, (2S,5R)-2-(5-(2-((2-aminoethyl)amino)ethyl)isoxazol-3-yl)-7-oxo-1,6-diazabicyclo[3.2.1]octan-6-yl hydrogen sulfate]: the “activity and/or spectrum of activity against bacterial strains that express KPC β-lactamases, compared with Avibactam” value is recorded as “more active than Avibactam”.
`O=C1N2C[C@@H](CC[C@H]2c2cc(COC3CNC3)on2)N1OS(=O)(=O)O` [Compound 624, (2S,5R)-2-(5-((azetidin-3-yloxy)methyl)isoxazol-3-yl)-7-oxo-1,6-diazabicyclo[3.2.1]octan-6-yl hydrogen sulfate]: the “activity and/or spectrum of activity against bacterial strains that express KPC β-lactamases, compared with Avibactam” value is given as “more active than Avibactam”.
Regarding `NCc1cc([C@@H]2CC[C@@H]3CN2C(=O)N3OS(=O)(=O)O)no1` [Compound 601, (2S,5R)-2-(5-(aminomethyl)isoxazol-3-yl)-7-oxo-1,6-diazabicyclo[3.2.1]octan-6-yl hydrogen sulfate], the “activity and/or spectrum of activity against bacterial strains that express KPC β-lactamases, compared with Avibactam” value is given as “more active than Avibactam”.
Still for that read-out and setting: with `N=C(N)NCCNCCc1cc([C@@H]2CC[C@@H]3CN2C(=O)N3OS(=O)(=O)O)no1` [Compound 621, (2S,5R)-2-(5-(2-((2-guanidinoethyl)amino)ethyl)isoxazol-3-yl)-7-oxo-1,6-diazabicyclo[3.2.1]octan-6-yl hydrogen sulfate] the entry was “more active than Avibactam”; with `O=C1N2C[C@@H](CC[C@H]2c2cc(CNC3CNC3)on2)N1OS(=O)(=O)O` [Compound 622, (2S,5R)-2-(5-((azetidin-3-ylamino)methyl)isoxazol-3-yl)-7-oxo-1,6-diazabicyclo[3.2.1]octan-6-yl hydrogen sulfate], “more active than Avibactam”.

In another experiment the test system is bacterial strains that express the class D cephalosporinase OXA-15. Description: Synergy MIC / standard BLI potentiation MIC assay, strains expressing OXA-15. Format: cell-based, E. coli. The settings on record: in the presence of a β-lactam; comparator Avibactam (CCC). The method, then: as §1, §2, §3, §4, §5
The synergy MIC (sMIC) assay determines the concentration of the BLI required to potentiate the activity of a fixed concentration of a β-lactam antibiotic against β-lactamase producing bacterial strains. […]
As to `N=C(N)NCc1cc([C@@H]2CC[C@@H]3CN2C(=O)N3OS(=O)(=O)O)no1` [Compound 603, (2S,5R)-2-(5-(guanidinomethyl)isoxazol-3-yl)-7-oxo-1,6-diazabicyclo[3.2.1]octan-6-yl hydrogen sulfate], the “activity against bacterial strains that express OXA-15, compared with Avibactam” value is given as “more active than Avibactam”.
With `N=C(N)NCC(O)c1cc([C@@H]2CC[C@@H]3CN2C(=O)N3OS(=O)(=O)O)no1` (single isomer, unassigned) [Compound 611, (2S,5R)-2-(5-((R*)-2-guanidino-1-hydroxyethyl)isoxazol-3-yl)-7-oxo-1,6-diazabicyclo[3.2.1]octan-6-yl hydrogen sulfate], the “activity against bacterial strains that express OXA-15, compared with Avibactam” value is on record as “more active than Avibactam”.
